Measured values taken from US20220233566A1, “NOVEL CARBONATE COMPOUND HAVING PYRROLOPYRIMIDINE SKELETON OR PHARMACEUTICALLY ACCEPTABLE SALT THEREOF” (TAIHO PHARMACEUTICAL CO., LTD., priority 2019, published 2022).

Columns and labels:
Assay in all cases: Growth suppression activity in human tumor cell line
Type in all cases: cell-based
A172 = settings: A 172, 72 h; Human brain tumor, A172, 3 days
Protocol: (§1) Human tumor cell lines different in type were suspended in mediums, seeded in individual wells of a multi-well plate and cultured. On the day after initiation of culture, serially diluted solutions of a compound were added. Culture was carried out for further 3 days. Cells were counted by a CellTiter-Glo (manufactured by Promega KK) in accordance with the protocol recommended by Promega KK. Cell viability was calculated in accordance with the equation shown below and the concentration (IC50 (μM)) of the compound at which 50% of cell growth is inhibited was obtained.
(§2) T: Intensity of light emitted from a well containing a compound
(§3) C: Intensity of light emitted from a well containing no compound

A2780 = settings: 72 h; Human ovary cancer, A2780, 3 days
Protocol: as §1, §2, §3

A673 = settings: 72 h; Human bone tumor, A673, 3 days
Protocol: as §1, §2, §3

BCP1 = settings: BCP-1, 72 h; Human hematopoietic organ tumor, BCP1, 3 days
Protocol: as §1, §2, §3

BXPC3 = settings: BXPC-3, 72 h; Human pancreatic cancer, BXPC3, 3 days
Protocol: as §1, §2, §3

CAPAN2 = settings: Capan-2, 72 h; Human pancreatic cancer, CAPAN2, 3 days
Protocol: as §1, §2, §3

CCRFCEM = settings: CCRF-CEM, 72 h, Human hematopoietic organ tumor, 3 days
Protocol: as §1, §2, §3

CFPAC1 = settings: CFPAC-1, 72 h; Human pancreatic cancer, CFPAC1, 3 days
Protocol: as §1, §2, §3

COL0792 = settings: 72 h; Human skin cancer, COL0792, 3 days
Protocol: as §1, §2, §3

DMS273 = settings: DMS-273, 72 h; Human lung cancer, DMS273, 3 days
Protocol: as §1, §2, §3

EBC1 = settings: EBC-1, 72 h; Human lung cancer, EBC1, 3 days
Protocol: as §1, §2, §3

H1703 = settings: NCI-H1703, 72 h; Human lung cancer, H1703, 3 days
Protocol: as §1, §2, §3

H2126 = settings: NCI-H2126, 72 h; Human lung cancer, H2126, 3 days
Protocol: as §1, §2, §3

H2170 = settings: NCI-H2170, 72 h; Human lung cancer, H2170, 3 days
Protocol: as §1, §2, §3

H226 = settings: NCI-H226, 72 h; Human lung cancer, H226, 3 days
Protocol: as §1, §2, §3

H441 = settings: NCI-H441, 72 h; Human lung cancer, H441, 3 days
Protocol: as §1, §2, §3

H460 = settings: NCI-H460, 72 h; Human lung cancer, H460, 3 days
Protocol: as §1, §2, §3

H526 = settings: NCI-H526, 72 h; Human lung cancer, H526, 3 days
Protocol: as §1, §2, §3

HCC1806 = settings: 72 h; Human breast cancer, HCC1806, 3 days
Protocol: as §1, §2, §3

HCT116 = settings: HCT-116, 72 h; Human colorectal cancer, HCT116, 3 days
Protocol: as §1, §2, §3

HS746T = settings: 72 h, Human stomach cancer, 3 days
Protocol: as §1, §2, §3

HT1197 = settings: 72 h; human bladder cancer, HT1197, 3 days
Protocol: as §1, §2, §3

HT29 = settings: HT-29, 72 h; Human colorectal cancer, HT29, 3 days
Protocol: as §1, §2, §3

MCF7 = settings: 72 h; Human breast cancer, MCF7, 3 days
Protocol: as §1, §2, §3

MES01 = settings: 72 h; Human lung cancer, MES01, 3 days
Protocol: as §1, §2, §3

MIAPACA2 = settings: MIA PaCa-2, 72 h; Human pancreatic cancer, MIAPACA2, 3 days
Protocol: as §1, §2, §3

MKN45 = settings: MKN-45, 72 h; Human stomach cancer, MKN45, 3 days
Protocol: as §1, §2, §3

MOLT4 = settings: MOLT-4, 72 h; Human hematopoietic organ tumor, MOLT4, 3 days
Protocol: as §1, §2, §3

MV-4-11 = settings: MV4-11, 72 h; Human hematopoietic organ tumor, MV-4-11, 3 days
Protocol: as §1, §2, §3

Mero48a = settings: 72 h, Human lung cancer, 3 days
Protocol: as §1, §2, §3

Mero82 = settings: 72 h; Human lung cancer, Mero82, 3 days
Protocol: as §1, §2, §3

N87 = settings: 72 h; Human stomach cancer, N87, 3 days
Protocol: as §1, §2, §3

NUGC3 = settings: NUGC-3, 72 h; Human stomach cancer, NUGC3, 3 days
Protocol: as §1, §2, §3

RPMI8226 = settings: RPMI-8226, 72 h; Human hematopoietic organ tumor, RPMI8226, 3 days
Protocol: as §1, §2, §3

SDM103T2 = settings: 72 h; Human lung cancer, SDM103T2, 3 days
Protocol: as §1, §2, §3

Structure (SMILES): Nc1ncnc2c1c(Br)cn2[C@@H]1O[C@H](CO)[C@@H](O)[C@@H]1F [Comparative Example 1, (2R,3R,4S,5R)-5-(4-amino-5-bromo-7H-pyrrolo[2,3-d]pyrimidin-7-yl)-4-fluoro-2-(hydroxymethyl) tetrahydrofuran-3-ol]
- IC50 (A172): 140 nM
- IC50 (A2780): 50 nM
- IC50 (A673): 130 nM
- IC50 (BCP1): 110 nM
- IC50 (BXPC3): 270 nM
- IC50 (CAPAN2): 50 nM
- IC50 (CCRFCEM): 50 nM
- IC50 (CFPAC1): 110 nM
- IC50 (COL0792): 890 nM
- IC50 (DMS273): 400 nM
- IC50 (EBC1): 60 nM
- IC50 (H1703): 20 nM
- IC50 (H2126): 110 nM
- IC50 (H2170): 260 nM
- IC50 (H226): 130 nM
- IC50 (H441): 140 nM
- IC50 (H460): 80 nM
- IC50 (H526): 170 nM
- IC50 (HCC1806): 130 nM
- IC50 (HCT116): 120 nM
- IC50 (HS746T): 250 nM
- IC50 (HT1197): 130 nM
- IC50 (HT29): 110 nM
- IC50 (MCF7): 80 nM
- IC50 (MES01): 410 nM
- IC50 (MIAPACA2): 70 nM
- IC50 (MKN45): 210 nM
- IC50 (MOLT4): 60 nM
- IC50 (MV-4-11): 30 nM
- IC50 (Mero48a): 160 nM
- IC50 (Mero82): 460 nM
- IC50 (N87): 30 nM
- IC50 (NUGC3): 70 nM
- IC50 (RPMI8226): 340 nM
- IC50 (SDM103T2): 580 nM
